From patent publication US6756342B1, “Substituted thienocycloalk(en) ylamino -1,3,5-triazine” (priority 1999, dated 2004)
Where a name gives a salt, the structure may show the parent alone.

Columns and labels:
[1] = logP determination by reversed-phase HPLC (EEC Directive 79/831 Annex V.A8); type: physicochemical; details: reversed-phase C18 HPLC column; a) acidic range: 0.1% aqueous phosphoric acid/acetonitrile gradient, C18, 43° C.
Procedure: The logP values given in Example 1 and in Table 1 were determined in accordance with EEC Directive 79/831 Annex V.A^8 by HPLC (High Performance Liquid Chromatography) using a reversed-phase column (C 18). Temperature: 43° C.
(a) Mobile phases for the determination in the acidic range: 0.1% aqueous phosphoric acid, acetonitrile; linear gradient from 10% acetonitrile to 90% acetonitrile—the corresponding data are labelled in Table 1 with ^a).
(b) Mobile phases for the determination in the neutral range: 0.01 molar aqueous phosphate buffer solution, acetonitrile; linear gradient from 10% acetonitrile to 90% acetonitrile—corresponding data are labelled in Table 1 with ^b).
Calibration was carried out using unbranched alkan-2-ones (with from 3 to 16 carbon atoms) whose logP values are known (determination of the logP values by the retention times using linear interpolation between two successive alkanones).

[2] = tested on: Amaranthus; experiment: Pre-emergence test/greenhouse; type: in vivo; details: 500 g of ai./ha, rated after three weeks vs untreated control
Procedure: (§1) Solvent: 5 parts by weight of acetone
(§2) Emulsifier: 1 part by weight of alkylaryl polyglycol ether
(§3) To produce a suitable preparation of active compound, 1 part by weight of active compound is mixed with the stated amount of solvent, the stated amount of emulsifier is added and the concentrate is diluted with water to the desired concentration.
(§4) Seeds of the test plants are sown in normal soil. After about 24 hours, the soil is sprayed with the preparation of active compound such that the particular amount of active compound desired is applied per unit area. The concentration of the spray liquor is chosen so that the particular amount of active compound desired is applied in 1000 litre of water per hectare.
(§5) After three weeks, the degree of damage to the plants is rated in % damage in comparison to the development of the untreated control.
(§6) 0%=no effect (like untreated control)

[3] = tested on: Abutilon; experiment: Pre-emergence test/greenhouse; type: in vivo; details: 500 g of ai./ha, rated after three weeks vs untreated control
Procedure: as §1, §2, §3, §4, §5, §6

[4] = tested on: Galium; experiment: Pre-emergence test/greenhouse; type: in vivo; details: 500 g of ai./ha, rated after three weeks vs untreated control
Procedure: as §1, §2, §3, §4, §5, §6

[5] = tested on: Alopecurus; experiment: Pre-emergence test/greenhouse; type: in vivo; details: 500 g of ai./ha, rated after three weeks vs untreated control
Procedure: as §1, §2, §3, §4, §5, §6

[6] = tested on: Setaria; experiment: Pre-emergence test/greenhouse; type: in vivo; details: 500 g of ai./ha, rated after three weeks vs untreated control
Procedure: as §1, §2, §3, §4, §5, §6

[7] = tested on: Amaranthus; experiment: Post-emergence test/greenhouse; type: in vivo; details: 500 g of ai./ha, rated after three weeks vs untreated control
Procedure: as §1, §2, §3
(§7) Test plants which have a height of 5-15 cm are sprayed with the preparation of active compound such that the particular amounts of active compound desired are applied per unit area. The concentration of the spray liquor is chosen so that the particular amounts of active compound desired are applied in 1000 l of water/ha.
as §5, §6

[8] = tested on: Sinapis; experiment: Post-emergence test/greenhouse; type: in vivo; details: 500 g of ai./ha, rated after three weeks vs untreated control
Procedure: as §1, §2, §3, §7, §5, §6

[9] = tested on: Alopecurus; experiment: Post-emergence test/greenhouse; type: in vivo; details: 500 g of ai./ha, rated after three weeks vs untreated control
Procedure: as §1, §2, §3, §7, §5, §6

[10] = tested on: Setaria; experiment: Post-emergence test/greenhouse; type: in vivo; details: 500 g of ai./ha, rated after three weeks vs untreated control
Procedure: as §1, §2, §3, §7, §5, §6

[11] = tested on: Xanthium; experiment: Post-emergence test/greenhouse; type: in vivo; details: 500 g of ai./ha, rated after three weeks vs untreated control
Procedure: as §1, §2, §3, §7, §5, §6

[12] = tested on: weeds; experiment: Pre-emergence test, overall statement; type: in vivo
Procedure: as §1, §2, §3, §4, §5, §6

[13] = tested on: weeds; experiment: Post-emergence test, overall statement; type: in vivo
Procedure: as §1, §2, §3, §7, §5, §6

Row | Compound | chromatographic logP [1] | % damage Amaranthus [2] [%] | % damage Abutilon [3] [%] | % damage Galium [4] [%] | % damage Alopecurus [5] [%] | % damage Setaria [6] [%] | % damage Amaranthus [7] [%] | % damage Sinapis [8] [%] | % damage Alopecurus [9] [%] | % damage Setaria [10] [%] | % damage Xanthium [11] [%] | activity against weeds [12] | activity against weeds [13]
1 | [H]/N=C(/N)N/C(=N/[H])NC1CCCc2sc(C)cc21 (centres unmarked) [Example II-1, 2-methyl-4,5,6,7-tetrahydrobenzo[b]thiophen-4-yl-biguanide hydrochloride] | 1.12 | – | – | – | – | – | – | – | – | – | – | – | –
2 | CC(F)c1nc(N)nc(NC2CCCc3sccc32)n1 (centres unmarked) [Example 1, 2-amino-4-(1-fluoro-ethyl)-6-(4,5,6,7-tetra-hydrobenzo[b]thiophen-4-yl-amino)-1,3,5-triazine] | 4.26 | 100 | 95 | 90 | 100 | 100 | 100 | 100 | 95 | 100 | 100 | strong activity | strong activity
